Laboratory results from the NIST ThermoML archive (doi:10.1016/j.tca.2017.10.003).
± gives the expanded uncertainty stated by the source.

Experiments:
[1] = Crystal; DTA
[2] = Molar enthalpy of transition or fusion; settings: DSC

Normal melting temperature [1] [°C]	Molar enthalpy of transition or fusion ([2]; Crystal 2) [kJ/mol]	Molar enthalpy of transition or fusion ([2]; Crystal) [kJ/mol]	Compound
48.00 ± 5	54.8 ± 3.4		CCCCCCCCCCCCCCCCO [1-hexadecanol]
54.00 ± 5		67.9 ± 4.3	CCCCCCCCCCCCCCCCCCO [1-octadecanol]
36.00 ± 5		51.7 ± 3.2	CCCCCCCCCCCCCCO [1-tetradecanol]
-1.00 ± 5		35.2 ± 2.1	CCCCCCCC/C=C\CCCCCCCCO [(Z)-9-octadecen-1-ol]
3.00 ± 5		32.6 ± 2.1	CCCCCCCCCCO [decan-1-ol]
-1.00 ± 6		49.7 ± 3.1	CCCCCCCCCCOC(=O)OCCCCCCCCCC [didecyl carbonate]
21.00 ± 6		69.4 ± 4.4	CCCCCCCCCCCCOC(=O)OCCCCCCCCCCCC [didodecyl carbonate]
47.00 ± 6		99.1 ± 6.1	CCCCCCCCCCCCCCCCOC(=O)OCCCCCCCCCCCCCCCC [dihexadecyl carbonate]
50.00 ± 6		101 ± 6.2	CCCCCCCCCCCCCCCCCCOC(=O)OCCCCCCCCCCCCCCCCCC [dioctadecyl carbonate]
-4.00 ± 6		56.3 ± 3.4	CCCCCCCC/C=C\CCCCCCCCOC(=O)OCCCCCCCC/C=C\CCCCCCCC [dioleyl carbonate]
35.00 ± 6		94.6 ± 5.9	CCCCCCCCCCCCCCOC(=O)OCCCCCCCCCCCCCC [ditetradecyl carbonate]
23.00 ± 5		34.8 ± 2.2	CCCCCCCCCCCCO [dodecan-1-ol]
